In brackets after ≈: the same amount, converted by molar mass. Activity calls are given as the source filed them. No cut-off for these calls is given here.
Columns and labels:
Staphylococcus aureus [1] = test: Antibacterial activity against methicillin resistant Staphylococcus aureus ATCC 43300 persisters assessed as eradication of colony formation at 24 to 40 ug/ml incubated for 6 hrs by colony counting method; assay type: functional, organism-based; details: dose 24-40 µg/ml
Staphylococcus aureus [2] = test: Inhibition of PG biosynthesis in Staphylococcus aureus assessed as fold change in Cls gene expression at 4 ug/ml incubated for 1 hr by qRT-PCR analysis relative to control; assay type: functional; details: dose 4.0 µg/ml
Staphylococcus aureus [3] = test: Inhibition of PG biosynthesis in Staphylococcus aureus assessed as fold change in PlsC gene expression at 4 ug/ml incubated for 1 hr by qRT-PCR analysis relative to control; assay type: functional; details: dose 4.0 µg/ml
Staphylococcus aureus [4] = test: Bactericidal activity against Staphylococcus aureus ATCC 25923 assessed as reduction in bacterial colony formation at 2X MIC incubated for 2 hrs by colony counting method; assay type: functional, organism-based
Staphylococcus aureus [5] = test: Bacteriostatic activity against Staphylococcus aureus ATCC 25923 assessed as reduction in bacterial growth at 4 ug/ml incubated for 16 hrs by Kirby-Bauer test method; assay type: functional, organism-based; details: dose 4.0 µg/ml
Cell membrane [6] = test: Induction of cell membrane permeabilization in methicillin resistant Staphylococcus aureus ATCC 43300 assessed as increase in nucleic acid leakage by measuring increase in absorbance at 0.5 to 2X MIC measured every 30 mins for 5 hrs by spectrophotometry; assay type: subcellular
Staphylococcus aureus [7] = test: Resistance index, ratio of MIC for antibacterial activity against Staphylococcus aureus ATCC 25923 measured after 60 days of serial passage to MIC for antibacterial activity against Staphylococcus aureus ATCC25923 measured after 16 hrs; assay type: functional
Staphylococcus aureus [8] = test: Binding affinity to His-tagged recombinant Staphylococcus aureus PgsA expressed in Escherichia coli Rosetta DE3 at 5 uM incubated for 1 hr followed by UV irradiation for 20 mins by in-gel fluorescence scanning analysis; details: time 80.0 min
Staphylococcus aureus [9] = test: Inhibition of PG biosynthesis in Staphylococcus aureus assessed as fold change in YpfP gene expression at 4 ug/ml incubated for 1 hr by qRT-PCR analysis relative to control; assay type: functional; details: dose 4.0 µg/ml
Cell membrane [10] = test: Induction of cell membrane disruption in methicillin resistant Staphylococcus aureus ATCC 43300 assessed as loose cell wall at 4 ug/ml incubated for 1 hr by transmission electron microscopic analysis; details: dose 4.0 µg/ml
Staphylococcus aureus [11] = test: Inhibition of PG biosynthesis in Staphylococcus aureus assessed as fold change in MprF gene expression at 4 ug/ml incubated for 1 hr by qRT-PCR analysis relative to control; assay type: functional; details: dose 4.0 µg/ml
Staphylococcus aureus [12] = test: Inhibition of PG biosynthesis in Staphylococcus aureus assessed as fold change in PlsY gene expression at 4 ug/ml incubated for 1 hr by qRT-PCR analysis relative to control; assay type: functional; details: dose 4.0 µg/ml
Staphylococcus aureus [13] = test: Antibacterial activity against methicillin resistant Staphylococcus aureus ATCC 43300 persisters assessed as reduction in number of living bacteria at 24 to 40 ug/ml measured over 24 hrs by colony counting method; assay type: functional, organism-based; details: dose 24-40 µg/ml
Cell membrane [14] = test: Induction of cell membrane disruption in Staphylococcus aureus ATCC 25923 at 4 ug/ml incubated for 1 hr by transmission electron microscopic analysis; assay type: subcellular; details: dose 4.0 µg/ml
Staphylococcus aureus [15] = test: Inhibition of PG biosynthesis in Staphylococcus aureus assessed as fold change in PlsX gene expression at 4 ug/ml incubated for 1 hr by qRT-PCR analysis relative to control; assay type: functional; details: dose 4.0 µg/ml
Cell membrane [16] = test: Induction of cell membrane depolarization in Staphylococcus aureus ATCC 25923 assessed as reduction in fluorescence intensity at 0.5 to 1 times MIC measured upto 90 mins by DiOC5 dye based flow cytometric analysis; assay type: subcellular; details: time min <=90
Staphylococcus aureus [17] = test: Bactericidal activity against in Staphylococcus aureus ATCC 25923 assessed as induction of bacterial death by measuring reduction in fluorescence intensity at 4 times MIC measured upto 90 mins by DiOC5 dye based flow cytometric analysis; assay type: functional, organism-based; details: time min <=90
Staphylococcus aureus [18] = test: Bacteriostatic activity against Staphylococcus aureus ATCC 25923 assessed as reduction in bacterial growth at 4 ug/ml incubated for 2 hrs by colony counting method; assay type: functional, organism-based; details: dose 4.0 µg/ml
Staphylococcus aureus [19] = test: Antibacterial activity against Staphylococcus aureus ATCC 25923 assessed as reduction in bacterial growth incubated for 16 hrs by broth microdilution method; assay type: functional
Staphylococcus aureus [20] = test: Inhibition of PG biosynthesis in Staphylococcus aureus assessed as fold change in LtaS gene expression at 4 ug/ml incubated for 1 hr by qRT-PCR analysis relative to control; assay type: functional; details: dose 4.0 µg/ml
Staphylococcus aureus [21] = test: Antibacterial activity against Staphylococcus aureus ATCC 25923 assessed as reduction in bacterial growth measured after 60 days of serial passage; assay type: functional; details: ATCC 25923, 1440 h, time 60 day
Lipid bilayer = test: Induction of pore formation in DOPC/DOPG large unilamellar vesicles assessed as calcein leakage at 0.5 to 2 times MIC measured for 30 mins by fluorescence based assay
Cell membrane [22] = test: Induction of cell membrane disruption in Staphylococcus aureus ATCC 25923 assessed as loose cell wall at 4 ug/ml incubated for 1 hr by transmission electron microscopic analysis; details: dose 4.0 µg/ml
Cell membrane [23] = test: Induction of cell membrane permeabilization in Staphylococcus aureus ATCC 25923 assessed as increase in nucleic acid leakage by measuring increase in absorbance at 0.5 to 2X MIC measured every 30 mins for 5 hrs by spectrophotometry; assay type: subcellular
Staphylococcus aureus [24] = test: Inhibition of PG biosynthesis in Staphylococcus aureus assessed as fold change in DgkB gene expression at 4 ug/ml incubated for 1 hr by qRT-PCR analysis relative to control; assay type: functional; details: dose 4.0 µg/ml
Staphylococcus aureus [25] = test: Inhibition of PG biosynthesis in Staphylococcus aureus assessed as fold change in CdsA gene expression at 4 ug/ml incubated for 1 hr by qRT-PCR analysis relative to control; assay type: functional; details: dose 4.0 µg/ml
Cell membrane [26] = test: Induction of cell membrane disruption in methicillin resistant Staphylococcus aureus ATCC 43300 at 4 ug/ml incubated for 1 hr by transmission electron microscopic analysis; assay type: subcellular; details: dose 4.0 µg/ml
RAW264.7 = test: Cytotoxicity against mouse RAW264.7 cells assessed as reduction in cell viability incubated for 48 hrs by MTT assay; assay type: cell-based; details: RAW264.7, 48 h

## COc1cc(/C=C/c2ccccc2F)c(C(=O)O)c(O)c1CC=C(C)C
Staphylococcus aureus [1]
  Activity: Active
Staphylococcus aureus [2]
  fold change (FC): 0.558
Staphylococcus aureus [3]
  fold change (FC): 1.99
Staphylococcus aureus [4]
  Activity: Active
Staphylococcus aureus [5]
  Activity: Active
Cell membrane [6]
  Activity: Active
Staphylococcus aureus [7]
  Ratio: 3
Staphylococcus aureus [8]
  Activity: Active
Staphylococcus aureus [9]
  fold change (FC): 0.446
Cell membrane [10]
  Activity: Active
Staphylococcus aureus [11]
  fold change (FC): 0.759
Staphylococcus aureus [12]
  fold change (FC): 1.58
Staphylococcus aureus [13]
  Activity: Active
Cell membrane [14]
  Activity: Active
Staphylococcus aureus [15]
  fold change (FC): 0.577
Cell membrane [16]
  Activity: Active
Staphylococcus aureus [17]
  Activity: Active
Staphylococcus aureus [18]
  Activity: Active
Staphylococcus aureus [19]
  MIC: 4 µg/mL (≈ 11.2 µM)
Staphylococcus aureus [20]
  fold change (FC): 0.663
Staphylococcus aureus [21]
  MIC: 12 µg/mL (≈ 33.7 µM)
Lipid bilayer
  Activity: inactive
Cell membrane [22]
  Activity: Active
Cell membrane [23]
  Activity: Active
Staphylococcus aureus [24]
  fold change (FC): 1.25
Staphylococcus aureus [25]
  fold change (FC): 1.18
Cell membrane [26]
  Activity: Active
RAW264.7
  IC50: 62.6 µM
